Legend:
E. coli K12 = experiment: MIC, CLSI/NCCLS broth microdilution; type: cell-based, Escherichia coli; conditions: Escherichia coli, K12, 24 h, read-out: Minimal Inhibitory Concentration (MIC) E. coli K12
Description: (§1) Two different strains of E. coli (Gram-negative) were used. The laboratory strain of E. coli, K-12 (ATCC Accession No. 700926), was used for preliminary MIC determinations. The tetracycline resistant strain of E. coli (Tet^R) was prepared by transforming competent JM109 E. coli (Promega) with the pBR322 plasmid (Carolina Biologicals) using the manufacturers protocol. This plasmid contains two resistance genes: the tetA gene expresses the tetracycline resistance TetA efflux pump (Sapunaric and Levy, Microbiol. 2005, 151, 2315-2322) and the amp^R gene expresses a β-lactamase enzyme (Bolivar, et al; Gene 1977, 2, 95-113) that cleaves the four membered ring of penicillin derivatives. The resulting E. coli, which we designate Tet^R E. coli, is both tetracycline and ampicillin resistant. The TetA efflux pump belongs to the major facilitator superfamily (MFS), spans the cytoplasmic membrane, and transports tetracycline from the cell cytoplasm to the periplasmic space (Thanassi, et al., J. Bacteriol. 1995, 177, 998-1007). This active efflux utilizes the proton gradient as an energy source (Levy, Antimicrob. Agents Chemother. 1992, 36, 695-703). One Gram-positive strain, S. aureus (ATCC Accession No. 29213), used for MIC study expresses the MFS type NorA efflux pump and is methicillin sensitive. MFS type efflux pumps are clinically relevant for resistance in both Gram-positive and Gram-negative bacteria (Sun, et al., Biochem. Biophys. Res. Commun. 2014, 453, 254-267). A Staphylococcus aureus 1199B strain that overexpresses the NorA efflux pump was also used to conduct checkerboard experiments (see, Example 8 below). This strain of S. aureus 1199B is resistant to both norfloxacin and ethidium bromide.
(§2) K-12 E. coli and S. aureus were acquired from ATCC. The S. aureus strain was used in the BSL-2 facility. K-12 E. coli was grown in L. B. Miller media (Sigma-Aldrich) and S. aureus was grown in cation adjusted MHII media (Sigma-Aldrich). Tet^R E. coli was grown in L. B. Miller media containing 100 μg/mL Ampicillin.
(§3) MIC experiments were performed as described in the Clinical and Laboratory Standards Institute (CLSI) standard microdilution protocols. Bacteria was grown overnight from one CFU in media without antibiotics. Tet^R E. coli was grown in media containing 100 μg/mL Ampicillin. On the day of experiment, bacteria were knocked back to O.D. 600 nm=0.550 in the same media. These exponential phase bacteria were then diluted in antibiotics-free media to get […]. In a 96-well plate either L. B. Miller or MHII media was added followed by serially diluted compounds 1-11, tetracycline, or ampicillin. All the tryptophan based compounds were dissolved in DMSO and the final concentration of DMSO in each well was kept constant at 0.5% (v/v).
(§4) For the combination experiments, first, the BT or control was added to the media in the well followed by the antibiotics. The contents of the well were mixed before adding 20 μL of bacteria to get 4×10^5 CFU/mL per well. The plates were incubated at 37° C., 200 RPM for 24 hours before collecting results on the Biotek Cytation 3 plate reader. No more than three plates were stacked on top of each other at a time. Optical density of the wells was determined at λ=600 nm. Cells alone were considered as 0% inhibition and media alone was considered as 100% inhibition. Any inhibition greater than 80% was considered as the MIC. The results were reproduced three times before reporting.
(§5) All minimum inhibitory concentration (MIC) values for compounds 1-11 were determined according to the methods prescribed by the National Committee for Clinical Laboratory Standards (NCCLS, Methods for Dilution Antimicrobial Susceptibility Tests for Bacteria that grow aerobically; National Committee for Clinical Laboratory Standards 2000, 5th Edition, M7-A5). […]

Tet^R E. coli [1] = experiment: MIC, CLSI/NCCLS broth microdilution; type: cell-based, Escherichia coli; conditions: 24 h; for MIC: Escherichia coli, read-out: Minimal Inhibitory Concentration (MIC) E. coli Tet^R; for Minimal Inhibitory Concentration (MIC) E. coli Tet^R: >80% growth inhibition, 37° C., substance alone
Description: as §1, §2, §3, §4, §5

Tet^R E. coli [2] = experiment: Recovery of tetracycline activity (co-administration, MIC of tetracycline); type: cell-based, Escherichia coli
Description: as §3, §4
First, MICs were determined for compounds 2, 3, 5, 6, 7, and 10 against Tet^R E. coli. Compounds 6 (para-Ph) and 7 (n-C3) were also included as controls. The MICs against Tet^R E. coli were refined compared to the power series and are reported as a range in Table 1 above. The MICs of tetracycline and ampicillin against Tet^R E. coli were 900±100 μM and >1000 μM, respectively. For comparison, the MIC for tetracycline against non-resistant E. coli K-12 is ˜3 μM. Ampicillin was used to maintain selective pressure for the expression of pBR322 plasmid. Ampicillin was omitted from experiments that contained tetracycline. Next, the MIC of tetracycline was determined when co-administered with 2, 3, 5, 6, 7, or 10. The results are represented as the MIC of tetracycline in the presence of the indicated BTs. The fold-recovery was determined by dividing the MIC of tetracycline when used alone by the MIC of tetracycline determined in the presence of the compounds.
The fractional inhibitory concentration (FIC) is often used as a measure of synergism or antagonism in comparing two or more compounds (Berenbaum, Pharmacol. Rev. 1989, 41, 93-141). The FIC is the sum of the fraction of the MIC for each compound used. Synergy is defined broadly as FIC<1, or more conservatively as FIC≤0.5. Under the broad definition, all compounds tested can be said to have at least moderate synergy with tetracycline. All arene-based compounds fit the more conservative definition of synergy with FIC values of 0.5 or less at the tested concentrations.

[3] = compound at 14 μM (single comparison concentration)
[4] = compound at ¼ MIC (2: 12, 3: 7, 5: 14, 6: 30, 7: 30, 10: 2.5 μM)
[5] = compound at ¼ MIC (2: 12, 3: 7, 5: 14, 6: 30, 7: 30, 10: 2.5 μM), tetracycline alone 900 μM
[6] = compound at ½ MIC (2: 24, 3: 14, 5: 28, 6: 60, 7: 60, 10: 5 μM)
[7] = compound at ½ MIC (2: 24, 3: 14, 5: 28, 6: 60, 7: 60, 10: 5 μM), tetracycline alone 900 μM
[8] = compound at 5 μM (single comparison concentration)

Cl.Cl.N[C@@H](Cc1c[nH]c2ccccc12)C(=O)Nc1ccc(NC(=O)[C@@H](N)Cc2c[nH]c3ccccc23)cc1 [Compound 6, (2S,2′S)-1,1′-(1,4-Phenylenebis(azanediyl))bis(3-(1H-indol-3-yl)-1-oxopropan-2-aminium) chloride]
MIC (E. coli K12): 128 µM
MIC (Tet^R E. coli [1]): 120 ± 14 µM
FIC (fractional inhibitory concentration) with tetracycline (Tet^R E. coli [2]; [3]): 0.62
Fold Recovery of tetracycline activity (Tet^R E. coli [2]; [3]): 2-fold
MIC [Tet] (tetracycline in the presence of the compound) (Tet^R E. coli [2]; [3]): 450 µM
FIC (fractional inhibitory concentration) with tetracycline (Tet^R E. coli [2]; [4]): 0.50
MIC [Tet] (tetracycline in the presence of the compound) (Tet^R E. coli [2]; [4]): 225 µM
Fold Recovery of tetracycline activity (Tet^R E. coli [2]; [5]): 4-fold
FIC (fractional inhibitory concentration) with tetracycline (Tet^R E. coli [2]; [6]): 0.63
MIC [Tet] (tetracycline in the presence of the compound) (Tet^R E. coli [2]; [6]): 112.5 µM
Fold Recovery of tetracycline activity (Tet^R E. coli [2]; [7]): 8-fold
melting point: 237 °C (dec.)

Cl.Cl.N[C@H](Cc1c[nH]c2ccccc12)C(=O)Nc1cccc(NC(=O)[C@H](N)Cc2c[nH]c3ccccc23)c1 [Compound 3, (2R,2′R)-1,1′-(1,3-Phenylenebis(azanediyl))bis(3-(1H-indol-3-yl)-1-oxopropan-2-aminium) chloride]
MIC (E. coli K12): 64 µM
Minimal Inhibitory Concentration (MIC) E. coli Tet^R (Tet^R E. coli [1]): 28 ± 4 µM
MIC (Tet^R E. coli [1]): 28 ± 4 µM
FIC (fractional inhibitory concentration) with tetracycline (Tet^R E. coli [2]; [4]): 0.50
MIC [Tet] (tetracycline in the presence of the compound) (Tet^R E. coli [2]; [4]): 225 µM
Fold Recovery of tetracycline activity (Tet^R E. coli [2]; [5]): 4-fold
FIC (fractional inhibitory concentration) with tetracycline (Tet^R E. coli [2]; [6]): 0.63
MIC [Tet] (tetracycline in the presence of the compound) (Tet^R E. coli [2]; [6]): 112.5 µM
Fold Recovery of tetracycline activity (Tet^R E. coli [2]; [7]): 8-fold
melting point: 242 °C (dec.)

Cl.Cl.N[C@@H](Cc1c[nH]c2ccccc12)C(=O)Nc1cccc(NC(=O)[C@@H](N)Cc2c[nH]c3ccccc23)c1 [Compound 2, (2S,2′S)-1,1′-(1,3-Phenylenebis(azanediyl))bis(3-(1H-indol-3-yl)-1-oxopropan-2-aminium) chloride]
MIC (E. coli K12): 64 µM
Minimal Inhibitory Concentration (MIC) E. coli Tet^R (Tet^R E. coli [1]): 48 ± 8 µM
MIC (Tet^R E. coli [1]): 48 ± 8 µM
FIC (fractional inhibitory concentration) with tetracycline (Tet^R E. coli [2]; [3]): 0.42
Fold Recovery of tetracycline activity (Tet^R E. coli [2]; [3]): 8-fold
MIC [Tet] (tetracycline in the presence of the compound) (Tet^R E. coli [2]; [3]): 112.5 µM
FIC (fractional inhibitory concentration) with tetracycline (Tet^R E. coli [2]; [4]): 0.38
MIC [Tet] (tetracycline in the presence of the compound) (Tet^R E. coli [2]; [4]): 112.5 µM
Fold Recovery of tetracycline activity (Tet^R E. coli [2]; [5]): 8-fold
FIC (fractional inhibitory concentration) with tetracycline (Tet^R E. coli [2]; [6]): 0.56
MIC [Tet] (tetracycline in the presence of the compound) (Tet^R E. coli [2]; [6]): 56.25 µM
Fold Recovery of tetracycline activity (Tet^R E. coli [2]; [7]): 16-fold
melting point: 223 °C (dec.)

Cl.Cl.N[C@@H](Cc1c[nH]c2ccccc12)C(=O)NCCCNC(=O)[C@@H](N)Cc1c[nH]c2ccccc12 [Compound 7, (2S,2′S)-1,1′-(Propane-1,3-diylbis(azanediyl))bis(3-(1H-indol-3-yl)-1-oxopropan-2-aminium) chloride]
MIC (E. coli K12): > 128 µM
MIC (Tet^R E. coli [1]): > 128 µM
FIC (fractional inhibitory concentration) with tetracycline (Tet^R E. coli [2]; [8]): 0.54
Fold Recovery of tetracycline activity (Tet^R E. coli [2]; [8]): 2-fold
MIC [Tet] (tetracycline in the presence of the compound) (Tet^R E. coli [2]; [8]): 450 µM
FIC (fractional inhibitory concentration) with tetracycline (Tet^R E. coli [2]; [4]): 0.38
MIC [Tet] (tetracycline in the presence of the compound) (Tet^R E. coli [2]; [4]): 112.5 µM
Fold Recovery of tetracycline activity (Tet^R E. coli [2]; [5]): 8-fold
FIC (fractional inhibitory concentration) with tetracycline (Tet^R E. coli [2]; [6]): 0.63
MIC [Tet] (tetracycline in the presence of the compound) (Tet^R E. coli [2]; [6]): 112.5 µM
Fold Recovery of tetracycline activity (Tet^R E. coli [2]; [7]): 8-fold
melting point: 234 °C (dec.)

Cl.Cl.N[C@@H](Cc1c[nH]c2ccccc12)C(=O)Nc1ccccc1NC(=O)[C@@H](N)Cc1c[nH]c2ccccc12 [Compound 5, (2S,2′S)-1,1′-(1,2-Phenylenebis(azanediyl))bis(3-(1H-indol-3-yl)-1-oxopropan-2-aminium) chloride]
MIC (E. coli K12): 64 µM
MIC (Tet^R E. coli [1]): 56 ± 8 µM
FIC (fractional inhibitory concentration) with tetracycline (Tet^R E. coli [2]; [4]): 0.50
MIC [Tet] (tetracycline in the presence of the compound) (Tet^R E. coli [2]; [4]): 225 µM
Fold Recovery of tetracycline activity (Tet^R E. coli [2]; [5]): 4-fold
FIC (fractional inhibitory concentration) with tetracycline (Tet^R E. coli [2]; [6]): 0.63
MIC [Tet] (tetracycline in the presence of the compound) (Tet^R E. coli [2]; [6]): 112.5 µM
Fold Recovery of tetracycline activity (Tet^R E. coli [2]; [7]): 8-fold
melting point: 201 °C (dec.)

Cl.Cl.N[C@H](Cc1c[nH]c2ccccc12)C(=O)NCCCCCCCCCCCCNC(=O)[C@@H](N)Cc1c[nH]c2ccccc12 [Compound 10, (S)-1-((12-((R)-2-Ammonio-3-(1H-indol-3-yl)propanamido)dodecyl)amino)-3-(1H-indol-3-yl)-1-oxopropan-2-aminium chloride]
MIC (E. coli K12): 8 µM
MIC (Tet^R E. coli [1]): 10 ± 2 µM
FIC (synergy with tetracycline) (Tet^R E. coli [2]; at the tested concentrations, synergy FIC<1 (broad) or FIC≤0.5 (conservative)): ≥ 0.75
FIC (fractional inhibitory concentration) with tetracycline (Tet^R E. coli [2]; [4]): 0.75
MIC [Tet] (tetracycline in the presence of the compound) (Tet^R E. coli [2]; [4]): 450 µM
Fold Recovery of tetracycline activity (Tet^R E. coli [2]; [5]): 2-fold
FIC (fractional inhibitory concentration) with tetracycline (Tet^R E. coli [2]; [6]): 0.75
MIC [Tet] (tetracycline in the presence of the compound) (Tet^R E. coli [2]; [6]): 225 µM
Fold Recovery of tetracycline activity (Tet^R E. coli [2]; [7]): 4-fold
recovery of tetracycline activity (Tet^R E. coli [2]; compound at ½ and ¼ of its MIC): 2 to 4 fold
melting point: 158 °C (dec.)
